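Dose response: 5 concentrations. Exposure: 48 h. Format: 96-well plates. Endpoint: linear interpolation; highest concentration if not reached. Definition used: TGI = concentration required for complete inhibition of growth.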
Each compound was assayed on HS 578T breast (assay: NCI anticancer screen, dose series, 48 h).

SMILES	TGI [µM]
CC1(CNCc2ccccc2)CC(CCc2ccccc2)N(C(=O)c2ccc([N+](=O)[O-])cc2)C1Cc1ccc(O)cc1 (centres undefined)	46.8
Cn1c2ccccc2n2c(=O)c3cc([N+](=O)[O-])ccc3c(C#N)c12	> 100
CCOC(=O)C(CC#Cc1ccc(C#CCC(NC(C)=O)C(=O)OCC)cc1)NC(C)=O (centres undefined)	> 100
O=C1CSC(c2cccs2)N1c1nc2cc3sc(N4C(=O)CSC4c4cccs4)nc3cc2s1 (centres undefined)	> 50
NC(N)=NS(=O)(=O)c1ccc(NC(=O)c2ccc3nc4ccccc4c(Nc4ccc(S(=O)(=O)N=C(N)N)cc4)c3c2)cc1	> 100
Brc1cc2nn(-c3ccccc3)nc2c2nonc12	> 100
CCOC(=O)C(NC(=O)CC(C)C)(N1CCN(c2cc3c(cc2F)c(=O)c(C(=O)O)cn3C2CC2)CC1)C(F)(F)F (centres undefined)	57.8
c1ccc(/C(=N/Nc2ccccn2)c2ncccn2)cc1	> 44.9
COc1cc(I)c2c3c1OC1C34CCN(C)C(C2)C4=CC(I)C1(OC)OC (centres undefined)	> 100
NC(=O)C(=CNC(=S)c1ccncc1)C(N)=O	> 100
COC(=O)C1=Nc2c(C)nn(-c3ccccc3)c2N=C(c2ccc([N+](=O)[O-])cc2)C1	> 10
COC(=O)c1ccc(C=Nc2ccc(S(N)(=O)=O)cc2)cc1	> 100
CC(C)(C)c1cc(/C=C(\C#N)C(=O)NCCO)cc(C(C)(C)C)c1O	> 100
COC(=O)Cc1c([C@H]2[C@H](CC(=O)OC)c3ccccc3N2C(C)=O)[nH]c2ccccc12	> 100
COCC1OC(N2C(=O)NC(=O)[C@@H]3C=C4CCCCC4=C[C@@H]32)C(OC)C1OC (some centres undefined)	> 100
CCCCc1ccc(Nc2nc3c(ncn3COCCO)c(=O)[nH]2)cc1	> 100

SMILES	TGI [µM]
O=C(Nc1ccccc1C(=O)NCCCO)/C(=C/c1ccccc1O)NC(=O)c1ccccc1	77.6
CCOC(=O)/C(C#N)=N\Nc1ccc(-n2c(C)nc3ccccc3c2=O)cc1	> 100
OC1(c2ccc(Cl)cc2)c2ccc3ccccc3c2C2=N[C@H]3CCCC[C@@H]3N21 (some centres undefined)	3.94
NC(=O)c1cc2ccccc2o/c1=N/O	91.6
Brc1cccc(N=NN2CCCC2)c1	> 100
COCc1nc2c(OC)cc(-c3nc4ccc(N5CCN(C)CC5)cc4[nH]3)c(OC)c2[nH]1	> 100
Brc1ccc2c(-c3csc(-c4c[nH]c5ccc(Br)cc45)n3)c[nH]c2c1	> 51.3
Cc1c2ncccc2cc2oc3ccccc3c(=O)c12	> 100
Clc1ccc(OCc2nnc(CCCCCCCCc3nnc(COc4ccc(Cl)cc4)n3Nc3ccccc3)n2Nc2ccccc2)cc1	> 100
COc1cc(CN2CCCCC2)cc2cc(C(=O)O)c(=O)oc12	> 100
Brc1ccc2c(-c3csc(-c4c[nH]c5cc(Br)ccc45)n3)c[nH]c2c1	87.1
O=c1c2ccccc2nc(Nc2cccc(Cl)c2)n1/N=C/C=C/c1ccccc1	> 100
Cc1nn(-c2cc(Cl)ccc2[N+](=O)[O-])c(C)c1Cl	> 100
Cn1c([O-])nc(-n2cc[n+](C)c2)cc1=O	> 100
CC1(C)C=C(S(=O)(=O)c2ccccc2)Oc2ccccc2O1	> 100

The compounds below were run on KM20L2 colon (assay: NCI anticancer screen, dose series, 48 h).

SMILES	TGI [µM]
CC(C)(C)C1CCC2(CC1)c1[nH]c3ccccc3c1C1(CCC(C(C)(C)C)CC1)c1[nH]c3ccccc3c12 (centres undefined)	> 100
COc1c(Br)cc(CC(N)=O)c(O)c1Br	> 100
CCOC(=O)C1=C(OC(OCC)C(CC)[Se]c2ccccc2)CCCC1 (centres undefined)	37.3
O=C1NC2OC(CO)C(O)C(O1)C2O (centres undefined)	> 100
COC(=O)C1CC2(c3ccccc3)C(=O)c3ccccc3N2O1 (centres undefined)	> 100
O=C(Nc1cccc(O)c1)C(=O)C(C(=O)c1ccccc1F)C1OC(=O)c2ccccc21 (centres undefined)	58.9
C=CCOCCCCC(C(C)=O)C(=O)OC (centres undefined)	> 100
O=C(CC1=NCCN1)c1ccccc1	> 750

These compounds were tested on ACHN renal (assay: NCI anticancer screen, dose series, 48 h).

SMILES	TGI [µM]
CC(C)(C)C1CCC2(CC1)c1[nH]c3ccccc3c1C1(CCC(C(C)(C)C)CC1)c1[nH]c3ccccc3c12 (centres undefined)	> 100
CC(=O)OC/C=C(/C=C/CNC1CCCCC1)OC(C)=O	30.1
O=C(N/N=C/c1ccco1)c1cc(I)cc(I)c1O	> 50
COc1c(Br)cc(CC(N)=O)c(O)c1Br	> 100
O=C(CSc1n[nH]c(=O)[nH]c1=O)NNC(=O)c1cccc2nc3ccccc3nc12	> 100
Nc1ccc(S(=O)(=O)Nc2nc3ccccc3nc2N2CCCCC2)cc1	> 100
COc1c(C)c2nc3ccccc3[nH]c2c2c(=O)ccnc12	> 100
CCOc1cc(-c2nc3ccccn3c2/N=C/c2cc(Br)ccc2O)ccc1O	> 100
CC1(CNCc2ccccc2)CC(CCc2ccccc2)N(C(=O)c2ccc([N+](=O)[O-])cc2)C1Cc1ccc(O)cc1 (centres undefined)	24.8
Cn1c2ccccc2n2c(=O)c3cc([N+](=O)[O-])ccc3c(C#N)c12	> 100
CCOC(=O)C(CC#Cc1ccc(C#CCC(NC(C)=O)C(=O)OCC)cc1)NC(C)=O (centres undefined)	> 100
O=C1CSC(c2cccs2)N1c1nc2cc3sc(N4C(=O)CSC4c4cccs4)nc3cc2s1 (centres undefined)	> 50
CCOC(=O)C1=C(OC(OCC)C(CC)[Se]c2ccccc2)CCCC1 (centres undefined)	82.2
NC(N)=NS(=O)(=O)c1ccc(NC(=O)c2ccc3nc4ccccc4c(Nc4ccc(S(=O)(=O)N=C(N)N)cc4)c3c2)cc1	> 100
Brc1cc2nn(-c3ccccc3)nc2c2nonc12	> 100
CCOC(=O)C(NC(=O)CC(C)C)(N1CCN(c2cc3c(cc2F)c(=O)c(C(=O)O)cn3C2CC2)CC1)C(F)(F)F (centres undefined)	34.6
c1ccc(/C(=N/Nc2ccccn2)c2ncccn2)cc1	13.3
COc1cc(I)c2c3c1OC1C34CCN(C)C(C2)C4=CC(I)C1(OC)OC (centres undefined)	98.3
NC(=O)C(=CNC(=S)c1ccncc1)C(N)=O	> 100
COC(=O)C1=Nc2c(C)nn(-c3ccccc3)c2N=C(c2ccc([N+](=O)[O-])cc2)C1	> 10
COC(=O)c1ccc(C=Nc2ccc(S(N)(=O)=O)cc2)cc1	> 100
CC(C)(C)c1cc(/C=C(\C#N)C(=O)NCCO)cc(C(C)(C)C)c1O	76.5
COC1(OC)CCCCC2c3cccc(OC(C)=O)c3C21OC(C)=O (centres undefined)	> 100

SMILES	TGI [µM]
COC(=O)Cc1c([C@H]2[C@H](CC(=O)OC)c3ccccc3N2C(C)=O)[nH]c2ccccc12	> 100
COCC1OC(N2C(=O)NC(=O)[C@@H]3C=C4CCCCC4=C[C@@H]32)C(OC)C1OC (some centres undefined)	> 100
CCCCc1ccc(Nc2nc3c(ncn3COCCO)c(=O)[nH]2)cc1	> 100
O=C(Nc1ccccc1C(=O)NCCCO)/C(=C/c1ccccc1O)NC(=O)c1ccccc1	97.4
CCOC(=O)/C(C#N)=N\Nc1ccc(-n2c(C)nc3ccccc3c2=O)cc1	> 100
OC1(c2ccc(Cl)cc2)c2ccc3ccccc3c2C2=N[C@H]3CCCC[C@@H]3N21 (some centres undefined)	> 100
O=C1NC2OC(CO)C(O)C(O1)C2O (centres undefined)	> 100
NC(=O)c1cc2ccccc2o/c1=N/O	> 100
Brc1cccc(N=NN2CCCC2)c1	> 100
COC(=O)C1CC2(c3ccccc3)C(=O)c3ccccc3N2O1 (centres undefined)	> 100
COCc1nc2c(OC)cc(-c3nc4ccc(N5CCN(C)CC5)cc4[nH]3)c(OC)c2[nH]1	> 100
O=C(O)C(CO)NC(=O)n1c2ccccc2c2ccccc21 (centres undefined)	> 100
Brc1ccc2c(-c3csc(-c4c[nH]c5ccc(Br)cc45)n3)c[nH]c2c1	11.1
Cc1c2ncccc2cc2oc3ccccc3c(=O)c12	> 100
O=C(Nc1cccc(O)c1)C(=O)C(C(=O)c1ccccc1F)C1OC(=O)c2ccccc21 (centres undefined)	> 100
Clc1ccc(OCc2nnc(CCCCCCCCc3nnc(COc4ccc(Cl)cc4)n3Nc3ccccc3)n2Nc2ccccc2)cc1	> 93
COc1cc(CN2CCCCC2)cc2cc(C(=O)O)c(=O)oc12	> 100
Brc1ccc2c(-c3csc(-c4c[nH]c5cc(Br)ccc45)n3)c[nH]c2c1	> 100
O=c1c2ccccc2nc(Nc2cccc(Cl)c2)n1/N=C/C=C/c1ccccc1	> 100
C=CCOCCCCC(C(C)=O)C(=O)OC (centres undefined)	> 100
Cc1nn(-c2cc(Cl)ccc2[N+](=O)[O-])c(C)c1Cl	> 100
Cn1c([O-])nc(-n2cc[n+](C)c2)cc1=O	> 100
CC1(C)C=C(S(=O)(=O)c2ccccc2)Oc2ccccc2O1	> 100

The compounds below were run on DU-145 prostate (assay: NCI anticancer screen, dose series, 48 h).

SMILES	TGI [µM]
CC(=O)OC/C=C(/C=C/CNC1CCCCC1)OC(C)=O	31.6
O=C(N/N=C/c1ccco1)c1cc(I)cc(I)c1O	> 50
O=C(CSc1n[nH]c(=O)[nH]c1=O)NNC(=O)c1cccc2nc3ccccc3nc12	> 100
Nc1ccc(S(=O)(=O)Nc2nc3ccccc3nc2N2CCCCC2)cc1	> 100
COc1c(C)c2nc3ccccc3[nH]c2c2c(=O)ccnc12	> 100
CCOc1cc(-c2nc3ccccn3c2/N=C/c2cc(Br)ccc2O)ccc1O	70.3
CC1(CNCc2ccccc2)CC(CCc2ccccc2)N(C(=O)c2ccc([N+](=O)[O-])cc2)C1Cc1ccc(O)cc1 (centres undefined)	28.5
Cn1c2ccccc2n2c(=O)c3cc([N+](=O)[O-])ccc3c(C#N)c12	> 100
CCOC(=O)C(CC#Cc1ccc(C#CCC(NC(C)=O)C(=O)OCC)cc1)NC(C)=O (centres undefined)	> 100
O=C1CSC(c2cccs2)N1c1nc2cc3sc(N4C(=O)CSC4c4cccs4)nc3cc2s1 (centres undefined)	> 50
NC(N)=NS(=O)(=O)c1ccc(NC(=O)c2ccc3nc4ccccc4c(Nc4ccc(S(=O)(=O)N=C(N)N)cc4)c3c2)cc1	> 100
Brc1cc2nn(-c3ccccc3)nc2c2nonc12	> 100
CCOC(=O)C(NC(=O)CC(C)C)(N1CCN(c2cc3c(cc2F)c(=O)c(C(=O)O)cn3C2CC2)CC1)C(F)(F)F (centres undefined)	> 100
c1ccc(/C(=N/Nc2ccccn2)c2ncccn2)cc1	> 100
